The results in this text go back to PubChem BioAssay (NCI).

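Cells were grown in 96-well plates and exposed to each compound for 48 hours at five concentrations; endpoints were interpolated linearly between bracketing concentrations, or set to the highest concentration if not reached. TGI: concentration producing complete growth inhibition.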

Some test systems named below: A498 renal; HCT-116 colon; OVCAR-3 ovarian; UACC-62 melanoma; SW-620 colon; SF-539 CNS; COLO 205 colon; SR leukemia; U251 CNS; KM12 colon; MOLT-4 leukemia; MDA-N; 786-0 renal; CAKI-1 renal; SK-MEL-28 melanoma; TK-10 renal; UACC-257 melanoma; RXF 393 renal; OVCAR-5 ovarian; SK-MEL-5 melanoma.
Common to all, as to experiment: NCI anticancer screen, dose series, 48 h

Take `S=c1[nH]n2c(COc3cccc(OCc4nnc5sc(=S)[nH]n45)c3)nnc2s1`: the TGI in the assay with A498 renal, in the assay on HCT-116 colon, in the assay on OVCAR-3 ovarian, with UACC-62 melanoma, in the assay with SW-620 colon and in the assay on SF-539 CNS was above 100 µM each time. Besides, the TGI in the assay on COLO 205 colon, with SR leukemia, in the assay on U251 CNS, in the assay on KM12 colon, with MOLT-4 leukemia and in the assay with MDA-N was above 100 µM throughout. Also, the TGI with 786-0 renal, with CAKI-1 renal, with SK-MEL-28 melanoma, with TK-10 renal, with UACC-257 melanoma and in the assay on RXF 393 renal was above 100 µM throughout. The same compound had a TGI in the assay with OVCAR-5 ovarian above 100 µM.

For `O=C(CCc1cc(O)cc(O)c1)NCCc1cc(O)cc(O)c1`, the TGI in the assay with A498 renal, in the assay with HCT-116 colon, in the assay on OVCAR-3 ovarian, with UACC-62 melanoma, with SW-620 colon and in the assay with SF-539 CNS was above 100 µM each time. For the same compound, the TGI in the assay on COLO 205 colon, in the assay with SR leukemia, in the assay with U251 CNS, with KM12 colon, with MOLT-4 leukemia and in the assay on MDA-N was above 100 µM in each case. The TGI with 786-0 renal, in the assay on CAKI-1 renal, with SK-MEL-5 melanoma, in the assay with SK-MEL-28 melanoma, in the assay with TK-10 renal and in the assay with UACC-257 melanoma was above 100 µM throughout. Also, the TGI with RXF 393 renal and in the assay with OVCAR-5 ovarian was above 100 µM in each case.

For the compound `COc1ccc(C(OC(C)=O)C2C(=C(C#N)C#N)c3ccccc3C2=C(C#N)C#N)cc1` (centres undefined), the TGI was 58.6 µM in the assay on A498 renal; above 100 µM with HCT-116 colon; 50.6 µM with OVCAR-3 ovarian; above 100 µM with SW-620 colon; 49.7 µM in the assay on SF-539 CNS; 41 µM in the assay on SR leukemia. Further, the TGI is above 100 µM with U251 CNS; above 100 µM in the assay with KM12 colon; 99.8 µM with MOLT-4 leukemia; above 100 µM in the assay on MDA-N; above 100 µM in the assay with 786-0 renal; above 100 µM in the assay on CAKI-1 renal. Moreover, the TGI was above 100 µM in the assay on SK-MEL-5 melanoma; above 100 µM in the assay on SK-MEL-28 melanoma; above 100 µM in the assay on TK-10 renal; above 100 µM in the assay with UACC-257 melanoma; above 100 µM in the assay with RXF 393 renal; 38.3 µM with OVCAR-5 ovarian.

For the compound `CC1C[C@]2(C)C(=O)Nc3ccccc3[C@@H]2Nc2ccccc21` (some centres undefined), the TGI is 53.4 µM in the assay on A498 renal; 33.6 µM in the assay on HCT-116 colon; 35.9 µM with OVCAR-3 ovarian; 45.3 µM with UACC-62 melanoma; above 100 µM with SW-620 colon; 63.5 µM with SF-539 CNS. For the same compound, the TGI in the assay with COLO 205 colon was 34 µM; in the assay with SR leukemia, 41.4 µM; in the assay on KM12 colon it was 39.1 µM; in the assay with MOLT-4 leukemia it was 59.2 µM; with MDA-N, above 100 µM; with 786-0 renal it was 45.2 µM. Further, the TGI in the assay on CAKI-1 renal was found to be 74.3 µM; in the assay on SK-MEL-5 melanoma it was 31.3 µM; in the assay on SK-MEL-28 melanoma, 95.5 µM; in the assay with TK-10 renal it was 58 µM; in the assay with UACC-257 melanoma it was 39.5 µM; in the assay on RXF 393 renal, 77.9 µM. In the assay with OVCAR-5 ovarian, the TGI is above 100 µM.

Take `CC(=O)Nc1ccc(-c2nc3cc(Cl)ccc3o2)cc1`: the TGI in the assay on A498 renal, with HCT-116 colon, in the assay with OVCAR-3 ovarian, in the assay with UACC-62 melanoma, in the assay on SW-620 colon and in the assay on SF-539 CNS was above 50 µM in each case. The TGI with COLO 205 colon, in the assay on SR leukemia, with U251 CNS, in the assay with KM12 colon, in the assay with MOLT-4 leukemia and in the assay on MDA-N was above 50 µM throughout. For the same compound, the TGI in the assay on 786-0 renal, with CAKI-1 renal, in the assay on SK-MEL-5 melanoma, with SK-MEL-28 melanoma, in the assay with TK-10 renal and with UACC-257 melanoma was above 50 µM each time. Moreover, the TGI in the assay with RXF 393 renal and with OVCAR-5 ovarian was above 50 µM in each case.

Consider `CC(C)(C)[Si](C)(C)OC1/C(=C/C#N)C(n2ccc(=O)[nH]c2=O)OC1CO` (centres undefined), for which the TGI in the assay on A498 renal, in the assay with HCT-116 colon, in the assay on OVCAR-3 ovarian, with UACC-62 melanoma, with SW-620 colon and with SF-539 CNS was above 100 µM in each case. Also, the TGI with COLO 205 colon, in the assay with SR leukemia, in the assay with U251 CNS, in the assay with KM12 colon, with MOLT-4 leukemia and in the assay on MDA-N was above 100 µM in each case. The TGI with 786-0 renal, in the assay with CAKI-1 renal, in the assay with SK-MEL-5 melanoma, in the assay with SK-MEL-28 melanoma, in the assay with TK-10 renal and in the assay with RXF 393 renal was above 100 µM each time. Further, in the assay on OVCAR-5 ovarian, the TGI is above 100 µM.

Take `O=c1c2c(-c3ccccc3)onc2n(-c2ccccc2)c(=O)n1-c1ccccc1`: the TGI is above 100 µM with A498 renal; above 100 µM in the assay on HCT-116 colon; 38.6 µM in the assay on OVCAR-3 ovarian; 32 µM with UACC-62 melanoma; above 100 µM with SW-620 colon; above 100 µM with SF-539 CNS. For the same compound, the TGI in the assay with COLO 205 colon was above 100 µM; with SR leukemia, above 100 µM; in the assay with U251 CNS, above 100 µM; with KM12 colon, 37 µM; with MOLT-4 leukemia it was above 100 µM; in the assay on MDA-N, above 100 µM. Also, the TGI in the assay with 786-0 renal is above 100 µM; with CAKI-1 renal, above 100 µM; with SK-MEL-5 melanoma, above 100 µM; with TK-10 renal it was 58.2 µM; in the assay on UACC-257 melanoma it was 53 µM; in the assay on RXF 393 renal it was above 100 µM. The TGI with OVCAR-5 ovarian turned out to be 44 µM.

As for `Cc1cc(OCc2nnc3n2N=C(c2cc(F)c(Cl)cc2Cl)/C(=C/c2ccc(Cl)cc2)S3)ccc1Cl`, the TGI with A498 renal is 45.9 µM; with HCT-116 colon, 66.9 µM; with OVCAR-3 ovarian it was above 100 µM; in the assay on SW-620 colon, 38.5 µM; with SF-539 CNS, above 100 µM; with SR leukemia, 30.4 µM. Further, the TGI is 43.4 µM in the assay with U251 CNS; 60.2 µM in the assay with KM12 colon; 19.8 µM in the assay on MOLT-4 leukemia; above 100 µM in the assay on MDA-N; above 100 µM in the assay with 786-0 renal; 49.9 µM in the assay with CAKI-1 renal. For the same compound, the TGI in the assay with SK-MEL-5 melanoma is 36.5 µM; with SK-MEL-28 melanoma, 54.9 µM; in the assay with TK-10 renal it was above 100 µM; with UACC-257 melanoma, above 100 µM; in the assay with RXF 393 renal it was 39.4 µM; in the assay with OVCAR-5 ovarian, 95.5 µM.

`Cc1cn(CCCCCOC(=O)NC(CCCN=C(N)N)C(=O)O)c(=O)[nH]c1=O` (centres undefined): the TGI in the assay on A498 renal is 74.3 µM; with HCT-116 colon, above 100 µM; with OVCAR-3 ovarian, above 100 µM; in the assay on UACC-62 melanoma, above 100 µM; in the assay with SW-620 colon it was above 100 µM; in the assay with SF-539 CNS it was above 100 µM. The TGI was 63.2 µM in the assay on COLO 205 colon; 30.8 µM in the assay on SR leukemia; above 100 µM in the assay on U251 CNS; above 100 µM in the assay with KM12 colon; above 100 µM in the assay with MOLT-4 leukemia; 31.3 µM with MDA-N. For the same compound, the TGI in the assay with 786-0 renal, in the assay with CAKI-1 renal, in the assay with SK-MEL-28 melanoma, with TK-10 renal, with UACC-257 melanoma and in the assay on RXF 393 renal was above 100 µM in each case. The same compound displayed a TGI with OVCAR-5 ovarian above 100 µM.

For the compound `C[C@@]12CCC3C1C=C1C(=O)c4cc(O)ccc4C(=O)[C@]1(O2)[C@@]3(C)C=O`, the TGI in the assay on A498 renal turned out to be 9.59 µM; in the assay on HCT-116 colon, 12.8 µM; in the assay with OVCAR-3 ovarian, 12 µM; in the assay on UACC-62 melanoma, 16.6 µM; in the assay with SW-620 colon, 12.9 µM; in the assay on SF-539 CNS, 12.3 µM. The TGI with COLO 205 colon amounted to 19.5 µM; with SR leukemia, 5.89 µM; in the assay with U251 CNS, 19 µM; with KM12 colon it was 18.1 µM; with MOLT-4 leukemia, 12.9 µM; with MDA-N, 12.6 µM. Also, the TGI in the assay with 786-0 renal came to 14.5 µM; with CAKI-1 renal it was 13.7 µM; in the assay with SK-MEL-5 melanoma, 16.1 µM; in the assay on TK-10 renal, 21.7 µM; in the assay on UACC-257 melanoma, 18.7 µM; in the assay with RXF 393 renal, 14.1 µM. In the assay on OVCAR-5 ovarian, the TGI was 26.3 µM.

`CCN(CC)C(=S)SS(=O)(=O)c1ccc(F)cc1`: the TGI was above 100 µM in the assay with A498 renal; above 100 µM in the assay with HCT-116 colon; above 100 µM in the assay on OVCAR-3 ovarian; above 100 µM in the assay on UACC-62 melanoma; 53.7 µM in the assay on SW-620 colon; 52.4 µM in the assay on SF-539 CNS. In addition, the TGI in the assay with COLO 205 colon was above 100 µM; in the assay with SR leukemia it was 57.5 µM; in the assay with U251 CNS, 73.4 µM; in the assay on KM12 colon it was above 100 µM; in the assay on MDA-N, above 100 µM; with 786-0 renal it was above 100 µM. For the same compound, the TGI in the assay with CAKI-1 renal is above 100 µM; with SK-MEL-5 melanoma it was above 100 µM; in the assay with SK-MEL-28 melanoma, 30.5 µM; with TK-10 renal, above 100 µM; in the assay on UACC-257 melanoma, 87.3 µM; in the assay on RXF 393 renal, 40.4 µM. In the assay with OVCAR-5 ovarian, this compound came in with a TGI above 100 µM.
